The source of these data is US10583137B2, “Triazole DAGLα inhibitors” (THE SCRIPPS RESEARCH INSTITUTE, priority 2015, dated 2020).

One assay addresses DAGLα (hDAGLα-FLAG) (Homo sapiens (Human), UniProt Q9Y4D2). Nature of the assay: competitive ABPP, membrane proteome of transfected HEK293T cells. To be noted: read-out: DAGLα IC50. It counts as biochemical. How it is done:
(§1) Compounds 19 and 20 were tested for in vitro inhibition of DAGLα and DAGLβ as measured by competitive activity-based protein profiling (ABPP) of […] using a HT-01 probe (targets DAGLα and DAGLβ) and a FP-Rh probe (targets serine hydrolases).
(§2) Briefly, membrane proteome (1 mg/ml, 20 μL) was prepared from HEK293T cells (transiently transfected with hDAGLα-FLAG or hDAGLα-S472A-FLAG, hDAGLβ-FLAG or hDAGLβ-S443A-FLAG) as described in Example 16. The proteome was incubated at room temperature with vehicle (DMSO) or compound in 0.5 μL DMSO for 30 min. The membrane proteome sample was subsequently treated for 30 min with HT-01 probe (1 μM) or FP-Rh probe (1 μM). The reactions were quenched with 10 μL 3× Laemmli sample buffer (final concentrations: 60 mM Tris-Cl pH 6.8, 2% (w/v) SDS, 10% (v/v) glycerol, 5% (v/v) (3-mercaptoethanol, 0.01% (v/v) bromophenol blue). The samples were directly loaded and resolved on SDS page gel (10% acrylamide). The gels were scanned using a ChemiDoc MP system (Cy3 settings, 605/50 filter).
(§3) The resolved proteins were transferred from the gels to a polyvinyldifluoride membrane for Western Blotting using a Trans-Blot® Turbo (BioRad). FLAG-tagged enzymes were stained using rabbit anti-FLAG as primary antibody, and goat-anti-rabbit HRP as secondary antibody. The blot was developed in the dark using a 10 mL luminal solution, 100 μL ECL enhancer and 3 μL H2O2. Chemiluminescence was visualized using a ChemiDoc XRS (BioRad).
(§4) The percentage of DAGL activity remaining in the assayed samples was determined by measuring the integrated optical intensity of the fluorescent protein bands of the Western Blot using image lab 4.1. The relative intensity was compared to the vehicle (DMSO) treated proteins, which were set to 100%. IC50 values were determined by plotting a log(inhibitor) vs. normalized response (Variable slope) dose-response curve generated using Prism software (GraphPad).

A further assay has as its target DAGLβ (hDAGLβ-FLAG) (Homo sapiens (Human), UniProt Q8NCG7). The assay is described as above. The class given is biochemical. To be noted: read-out: DAGLβ IC50. The method, then:
as §1, §2, §3, §4

Each structure is given as a SMILES string. Some results are limits rather than exact numbers.

Sequence of DAGLα (hDAGLα-FLAG) (Q9Y4D2 whole entry): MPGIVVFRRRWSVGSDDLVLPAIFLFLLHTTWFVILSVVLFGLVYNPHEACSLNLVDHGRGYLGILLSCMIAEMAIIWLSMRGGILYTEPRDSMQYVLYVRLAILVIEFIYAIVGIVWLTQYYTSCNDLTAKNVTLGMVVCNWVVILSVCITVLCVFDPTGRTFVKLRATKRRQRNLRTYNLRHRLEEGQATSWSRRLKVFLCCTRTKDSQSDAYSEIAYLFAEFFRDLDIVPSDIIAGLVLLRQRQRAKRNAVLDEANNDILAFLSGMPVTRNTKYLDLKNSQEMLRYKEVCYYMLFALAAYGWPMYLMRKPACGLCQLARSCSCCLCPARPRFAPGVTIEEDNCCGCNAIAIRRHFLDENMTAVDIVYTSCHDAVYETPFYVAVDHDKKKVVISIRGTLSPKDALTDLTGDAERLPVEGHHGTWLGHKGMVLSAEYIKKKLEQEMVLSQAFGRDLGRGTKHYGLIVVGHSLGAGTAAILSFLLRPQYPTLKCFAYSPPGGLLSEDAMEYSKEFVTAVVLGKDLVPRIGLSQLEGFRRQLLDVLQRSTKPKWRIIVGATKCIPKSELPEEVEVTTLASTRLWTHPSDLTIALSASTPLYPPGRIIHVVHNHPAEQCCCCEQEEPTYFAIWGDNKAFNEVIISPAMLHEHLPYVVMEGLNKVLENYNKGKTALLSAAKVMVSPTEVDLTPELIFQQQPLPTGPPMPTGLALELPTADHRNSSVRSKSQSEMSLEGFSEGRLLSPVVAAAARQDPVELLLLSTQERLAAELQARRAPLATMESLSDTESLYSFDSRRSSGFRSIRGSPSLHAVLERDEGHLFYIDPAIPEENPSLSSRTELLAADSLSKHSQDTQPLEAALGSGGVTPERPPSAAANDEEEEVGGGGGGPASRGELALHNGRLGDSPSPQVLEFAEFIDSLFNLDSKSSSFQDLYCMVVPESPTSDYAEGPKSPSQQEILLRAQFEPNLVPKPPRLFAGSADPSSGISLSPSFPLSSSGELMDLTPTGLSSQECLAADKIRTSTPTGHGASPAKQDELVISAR
Sequence of DAGLβ (hDAGLβ-FLAG) (Q8NCG7 whole entry): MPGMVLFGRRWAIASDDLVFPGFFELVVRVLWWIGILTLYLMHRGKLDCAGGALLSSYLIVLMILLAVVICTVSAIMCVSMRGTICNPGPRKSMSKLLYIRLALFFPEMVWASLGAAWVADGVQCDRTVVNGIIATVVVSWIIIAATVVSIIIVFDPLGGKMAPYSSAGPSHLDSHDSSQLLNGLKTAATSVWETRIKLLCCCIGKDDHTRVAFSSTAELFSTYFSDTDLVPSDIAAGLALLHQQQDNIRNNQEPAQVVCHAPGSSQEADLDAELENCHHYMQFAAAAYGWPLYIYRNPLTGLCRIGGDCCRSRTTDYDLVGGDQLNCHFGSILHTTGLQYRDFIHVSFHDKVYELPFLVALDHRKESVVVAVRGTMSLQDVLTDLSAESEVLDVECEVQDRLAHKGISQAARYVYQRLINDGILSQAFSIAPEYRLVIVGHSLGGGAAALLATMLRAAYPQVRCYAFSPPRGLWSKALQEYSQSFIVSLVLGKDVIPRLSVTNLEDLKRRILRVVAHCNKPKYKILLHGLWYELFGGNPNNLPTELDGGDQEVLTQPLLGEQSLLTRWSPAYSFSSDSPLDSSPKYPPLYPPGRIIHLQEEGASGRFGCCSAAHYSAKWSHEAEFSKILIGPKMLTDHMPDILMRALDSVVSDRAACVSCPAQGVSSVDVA

For the molecule `COc1cc(OC)c(-c2ccc(-c3cn(C(=O)N4CCCCC4Cc4ccncc4)nn3)cc2)c(OC)c1` (stereo not shown) [Compound 67, (2-(pyridin-4-ylmethyl)piperidin-1-yl)(4-(2′,4′,6′-trimethoxy-[1,1′-biphenyl]-4-yl)-1H-1,2,3-triazol-1-yl)methanone], the concentration for half-maximal inhibition (IC50) at DAGLα (hDAGLα-FLAG) was at most 400 nM; at DAGLβ (hDAGLβ-FLAG), 2000 to 10000 nM.
In the same order, the values of `COc1cc(C)cc(OC)c1-c1ccc(-c2cn(C(=O)N3CCCCC3Cc3ccncc3)nn2)cc1` (stereo not shown) [Compound 68, (4-(2′,6′-dimethoxy-4′-methyl-[1,1′-biphenyl]-4-yl)-1H-1,2,3-triazol-1-yl)(2-(pyridin-4-ylmethyl)piperidin-1-yl)methanone] are at most 400 nM and 2000 to 10000 nM.
The corresponding values for `COc1cc(Cl)cc(OC)c1-c1ccc(-c2cn(C(=O)N3CCCCC3Cc3ccncc3)nn2)cc1` (stereo not shown) [Compound 69, (4-(4′-chloro-2′,6′-dimethoxy-[1,1′-biphenyl]-4-yl)-1H-1,2,3-triazol-1-yl)(2-(pyridin-4-ylmethyl)piperidin-1-yl)methanone] are at most 400 nM and 2000 to 10000 nM.
`COc1cncc(OC)c1-c1ccc(-c2cnn(C(=O)N3CCCCC3Cc3ccccc3)n2)cc1` (stereo not shown) [Compound 70, (2-benzylpiperidin-1-yl)(4-(4-(3,5-dimethoxypyridin-4-yl)phenyl)-2H-1,2,3-triazol-2-yl)methanone]: the IC50 on DAGLα (hDAGLα-FLAG) was 2000 to 10000 nM; on DAGLβ (hDAGLβ-FLAG), over 10000 nM.
In the same order, the values of `Cc1cncc(C)c1-c1ccc(-c2cn(C(=O)N3CCCCC3Cc3ccccc3)nn2)cc1` (stereo not shown) [Compound 71, (2-benzylpiperidin-1-yl)(4-(4-(3,5-dimethylpyridin-4-yl)phenyl)-1H-1,2,3-triazol-1-yl)methanone] are at most 400 nM and 400 to 2000 nM.
The corresponding values for `O=C(N1CCCCC1Cc1ccccc1)n1cc(-c2ccc(-c3c(F)cncc3F)cc2)nn1` (stereo not shown) [Compound 72, (2-benzylpiperidin-1-yl)(4-(4-(3,5-difluoropyridin-4-yl)phenyl)-1H-1,2,3-triazol-1-yl)methanone] are 400 to 2000 nM and 400 to 2000 nM.
In the same order, the values of `O=C(N1CCCCC1Cc1ccccc1)n1cc(-c2ccc(-c3c(Cl)cncc3Cl)cc2)nn1` (stereo not shown) [Compound 73, (2-benzylpiperidin-1-yl)(4-(4-(3,5-dichloropyridin-4-yl)phenyl)-1H-1,2,3-triazol-1-yl)methanone] are at most 400 nM and at most 400 nM.
Take `COc1cc(OC)c(-c2ccc(-c3cn(C(=O)N4CCCCC4Cc4ccccc4)nn3)cn2)c(OC)c1` (stereo not shown) [Compound 74, (2-benzylpiperidin-1-yl)(4-(6-(2,4,6-trimethoxyphenyl)pyridin-3-yl)-1H-1,2,3-triazol-1-yl)methanone]: the IC50 on DAGLα (hDAGLα-FLAG) was at most 400 nM; at DAGLβ (hDAGLβ-FLAG) it was 2000 to 10000 nM.
The corresponding values for `CN(C)C(=O)c1ccc(-c2ccc(-c3cn(C(=O)N4CCCCC4Cc4ccccc4)nn3)cc2)cc1` (stereo not shown) [Compound 75, 4′-(1-(2-benzylpiperidine-1-carbonyl)-1H-1,2,3-triazol-4-yl)-N,N-dimethyl-[1,1′-biphenyl]-4-carboxamide] are 2000 to 10000 nM and over 10000 nM.
In the same order, the values of `CN(C)C(=O)c1cccc(-c2ccc(-c3cn(C(=O)N4CCCCC4Cc4ccccc4)nn3)cc2)c1` (stereo not shown) [Compound 76, 4′-(1-(2-benzylpiperidine-1-carbonyl)-1H-1,2,3-triazol-4-yl)-N,N-dimethyl-[1,1′-biphenyl]-3-carboxamide] are 400 to 2000 nM and over 10000 nM.
In the same order, the values of `CN(C)C(=O)c1ccccc1-c1ccc(-c2cn(C(=O)N3CCCCC3Cc3ccccc3)nn2)cc1` (stereo not shown) [Compound 77, 4′-(1-(2-benzylpiperidine-1-carbonyl)-1H-1,2,3-triazol-4-yl)-N,N-dimethyl-[1,1′-biphenyl]-2-carboxamide] are at most 400 nM and 400 to 2000 nM.
On to `COc1cc(C(N)=O)cc(OC)c1-c1ccc(-c2cn(C(=O)N3CCCCC3Cc3ccccc3)nn2)cc1` (stereo not shown) [Compound 78, 4′-(1-(2-benzylpiperidine-1-carbonyl)-1H-1,2,3-triazol-4-yl)-2,6-dimethoxy-[1,1′-biphenyl]-4-carboxamide], for which the IC50 is 400 to 2000 nM at DAGLα (hDAGLα-FLAG) and over 10000 nM at DAGLβ (hDAGLβ-FLAG).
For the molecule `CNC(=O)c1cc(OC)c(-c2ccc(-c3cn(C(=O)N4CCCCC4Cc4ccccc4)nn3)cc2)c(OC)c1` (stereo not shown) [Compound 79, 4′-(1-(2-benzylpiperidine-1-carbonyl)-1H-1,2,3-triazol-4-yl)-2,6-dimethoxy-N-methyl-[1,1′-biphenyl]-4-carboxamide], the IC50 is 400 to 2000 nM at DAGLα (hDAGLα-FLAG) and over 10000 nM at DAGLβ (hDAGLβ-FLAG).
As to `COc1cc(C(=O)N(C)C)cc(OC)c1-c1ccc(-c2cn(C(=O)N3CCCCC3Cc3ccccc3)nn2)cc1` (stereo not shown) [Compound 80, 4′-(1-(2-benzylpiperidine-1-carbonyl)-1H-1,2,3-triazol-4-yl)-2,6-dimethoxy-N,N-dimethyl-[1,1′-biphenyl]-4-carboxamide], the concentration for half-maximal inhibition (IC50) was 400 to 2000 nM on DAGLα (hDAGLα-FLAG) and over 10000 nM at DAGLβ (hDAGLβ-FLAG).
Turning to `COc1cc(C(=O)N2CCCC2)cc(OC)c1-c1ccc(-c2cn(C(=O)N3CCCCC3Cc3ccccc3)nn2)cc1` (stereo not shown) [Compound 81, (2-benzylpiperidin-1-yl)(4-(2′,6′-dimethoxy-4′-(pyrrolidine-1-carbonyl)-[1,1′-biphenyl]-4-yl)-1H-1,2,3-triazol-1-yl)methanone], the IC50 at DAGLα (hDAGLα-FLAG) is 400 to 2000 nM; on DAGLβ (hDAGLβ-FLAG) it was over 10000 nM.
Consider `COc1ncnc(OC)c1-c1ccc(-c2cn(C(=O)N3CCCCC3Cc3ccccc3)nn2)cc1` (stereo not shown) [Compound 82, (2-benzylpiperidin-1-yl)(4-(4-(4,6-dimethoxypyrimidin-5-yl)phenyl)-1H-1,2,3-triazol-1-yl)methanone], for which the 50% inhibitory concentration (IC50) on DAGLα (hDAGLα-FLAG) and at DAGLβ (hDAGLβ-FLAG) was at most 400 nM throughout.
As to `COc1cnnc(OC)c1-c1ccc(-c2cn(C(=O)N3CCCCC3Cc3ccccc3)nn2)cc1` (stereo not shown) [Compound 83, (2-benzylpiperidin-1-yl)(4-(4-(3,5-dimethoxypyridazin-4-yl)phenyl)-1H-1,2,3-triazol-1-yl)methanone], the IC50 at DAGLα (hDAGLα-FLAG) was at most 400 nM; on DAGLβ (hDAGLβ-FLAG), 2000 to 10000 nM.
The corresponding values for `COc1cc(OC)c(-c2cn(C(=O)N3CCCCC3Cc3ccccc3)nn2)c(OC)c1` (stereo not shown) [Compound 84, (2-benzylpiperidin-1-yl)(4-(2,4,6-trimethoxyphenyl)-1H-1,2,3-triazol-1-yl)methanone] are over 10000 nM and 2000 to 10000 nM.
In the same order, the values of `COc1cc(OC)c(-c2cnn(C(=O)N3CCCCC3Cc3ccccc3)n2)c(OC)c1` (stereo not shown) [Compound 85, (2-benzylpiperidin-1-yl)(4-(2,4,6-trimethoxyphenyl)-1H-1,2,3-triazol-2-yl)methanone] are over 10000 nM and 2000 to 10000 nM.
Consider `COc1ccc(-c2cn(C(=O)N3CCCCC3Cc3ccccc3)nn2)cc1` (stereo not shown) [Compound 87, (2-benzylpiperidin-1-yl)(4-(4-methoxyphenyl)-1H-1,2,3-triazol-1-yl)methanone], for which the concentration for half-maximal inhibition (IC50) on DAGLα (hDAGLα-FLAG) and on DAGLβ (hDAGLβ-FLAG) was at most 400 nM throughout.
Regarding `N#Cc1ccc(-c2cn(C(=O)N3CCCCC3Cc3ccccc3)nn2)cc1` (stereo not shown) [Compound 88, 4-(1-(2-benzylpiperidine-1-carbonyl)-1H-1,2,3-triazol-4-yl)benzonitrile], the IC50 at DAGLα (hDAGLα-FLAG) and at DAGLβ (hDAGLβ-FLAG) was at most 400 nM each time.
As to `O=C(N1CCCCC1Cc1ccccc1)n1cc(-c2ccc([N+](=O)[O-])cc2)nn1` (stereo not shown) [Compound 89, (2-benzylpiperidin-1-yl)(4-(4-nitrophenyl)-1H-1,2,3-triazol-1-yl)methanone], the half-maximal inhibitory concentration (IC50) at DAGLα (hDAGLα-FLAG) and at DAGLβ (hDAGLβ-FLAG) was at most 400 nM each time.
For the molecule `O=C(N1CCCCC1Cc1ccccc1)n1cc(-c2ccc(Br)nc2)nn1` (stereo not shown) [Compound 90, (2-benzylpiperidin-1-yl)(4-(6-bromopyridin-3-yl)-1H-1,2,3-triazol-1-yl)methanone], the concentration for half-maximal inhibition (IC50) at DAGLα (hDAGLα-FLAG) and on DAGLβ (hDAGLβ-FLAG) was at most 400 nM in each case.
For the molecule `CS(=O)(=O)OCc1ccc(-c2cn(C(=O)N3CCCCC3Cc3ccccc3)nn2)cc1` (stereo not shown) [Compound 91, 4-(1-(2-benzylpiperidine-1-carbonyl)-1H-1,2,3-triazol-4-yl)benzyl methanesulfonate], the figures for the IC50 at DAGLα (hDAGLα-FLAG) and on DAGLβ (hDAGLβ-FLAG) were at most 400 nM and 2000 to 10000 nM, respectively.
The corresponding values for `CN(C)Cc1ccc(-c2cn(C(=O)N3CCCCC3Cc3ccccc3)nn2)cc1` (stereo not shown) [Compound 92, (2-benzylpiperidin-1-yl)(4-(4-((dimethylamino)methyl)phenyl)-1H-1,2,3-triazol-1-yl)methanone] are 2000 to 10000 nM and 2000 to 10000 nM.
The corresponding values for `O=C(N1CCCCC1Cc1ccccc1)n1cc(-c2ccc(CN3CCCC3)cc2)nn1` (stereo not shown) [Compound 93, (2-benzylpiperidin-1-yl)(4-(4-(pyrrolidin-1-ylmethyl)phenyl)-1H-1,2,3-triazol-1-yl)methanone] are 2000 to 10000 nM and over 10000 nM.

In general, IC50 refers to the concentration that gives 50% inhibition.
